The results in this text go back to US8900819B2, “ADRB2 cancer markers” (The Regents of The University of Michigan, priority 2007, dated 2014).

“Also recorded” adds a separate entry of the source.

Assay [1] has as its system ADRB2 transcript. The experiment in a line: qRT-PCR of ADRB2 transcript after DZNep in breast and prostate cancer cell lines. Format: cell-based. Particulars: 5 μM, 48 hrs; batch of breast and prostate cancer cell lines; FIG. 3K. As for the experimental part: (§1) The ADRB2 antagonist ICI 118,551, and agonist Isoproterenol was purchased from Sigma-Aldrich, and used at a working concentration of 1 μM, 10 μM or 100 μM. SAHA was obtained from Biovision Inc, dissolved in DMSO, and used at a working concentration of 1 μM. DZNep was used at 5 μM and cells were treated for 48 hrs before being harvested for RNA isolation.
(§2) SYBR green qRT-PCR was carried out according to standard protocols in triplicates (Kleer et al., 2003, supra). Samples were normalized to the mRNA level of the house-keeping gene GAPDH or RPL13A.
(Real-time PCR tracks product formation cycle by cycle.)

For assay [2], the system named is ADRB2 promoter. The experiment in a line: ChIP of ectopic Myc-EZH2 at the ADRB2 promoter in H16N2 cells. Particulars: H16N2 cells with EZH2 adenovirus; FIG. 3F. The format is cell-based, human. The procedure: ChIP was performed according to published protocols with slight modifications (Boyd et al., Proc Natl Acad Sci USA 95, 13887-13892 1998). Briefly, formaldehyde was added directly to the cultured cells to a final concentration of 1%. For metastasis tissues, samples were first chopped into small pieces with a razor blade and transferred into 5-10 ml PBS before adding formaldehyde. Cells were rotated at room temperature for 10 min. The crosslinking was stopped by 1/20V of 2.5M Glycine and the cells were washed with 1×PBS and harvested in 1×PBS with proteinase inhibitors. Metastasis tissue samples were further disaggregated using a tissue homogenizer. The cells were then pelleted and resuspended in cell lysis buffer containing protease inhibitors. After incubation in cell lysis buffer for 10 min, the samples were pelleted, resuspended in nuclei lysis buffer and sonicated to chromatins with an average size of 500 bp. The chromatins were precleared using Salmon sperm DNA/Protein A Agarose-50% flurry and incubated with specific antibodies overnight. Antibodies used in this study include EZH2 (BD Bioscience), EED (Upstate), SUZ12 (Abeam), trimethylated H3K27 (Upstate), Acetyl-H3K27 (Upstate), Myc (Abeam), and IgG control (Santa Cruz). The next day, the antibody-bound chromatin was pooled down using protein A/agarose, washed extensively, and reverse-crosslinked. […]

For assay [3], the system named is ADRB2 transcript. The assay is described as follows: qRT-PCR of ADRB2 transcript after SAHA time course. Format: cell-based. Particulars: time course of SAHA treatment; FIG. 3J. The procedure: For ChIP and qRT-PCR analysis, DU145 cells were treated with 0.5 μM of SAHA for 30 min, 2, 6, 12 and 24 hrs prior to harvest.
as §2

In assay [4] the test system is ADRB2 promoter. The experiment in a line: ChIP of endogenous PRC2 complex, 3mH3K27 and acetylated H3 at the ADRB2 promoter. Format: cell-based. Particulars: FIG. 3H-I. As for the experimental part:
ChIP was performed according to published protocols with slight modifications (Boyd et al., Proc Natl Acad Sci USA 95, 13887-13892 1998). Briefly, formaldehyde was added directly to the cultured cells to a final concentration of 1%. For metastasis tissues, samples were first chopped into small pieces with a razor blade and transferred into 5-10 ml PBS before adding formaldehyde. Cells were rotated at room temperature for 10 min. The crosslinking was stopped by 1/20V of 2.5M Glycine and the cells were washed with 1×PBS and harvested in 1×PBS with proteinase inhibitors. Metastasis tissue samples were further disaggregated using a tissue homogenizer. The cells were then pelleted and resuspended in cell lysis buffer containing protease inhibitors. After incubation in cell lysis buffer for 10 min, the samples were pelleted, resuspended in nuclei lysis buffer and sonicated to chromatins with an average size of 500 bp. The chromatins were precleared using Salmon sperm DNA/Protein A Agarose-50% flurry and incubated with specific antibodies overnight. […] The next day, the antibody-bound chromatin was pooled down using protein A/agarose, washed extensively, and reverse-crosslinked. Immunoprecipitated DNA and whole cell extract DNA were purified by treatment with RNase A, proteinase K and purified using Qiaquick PCR purification kit (Qiagen, Valencia, Calif.). The purified DNA was used for PCR analysis of enrichment. Purified DNA was blunted and ligated to linkers and amplified by a two-stage ligation-mediated PCR (LM-PCR) protocol (Lee et al., Cell 125, 301-313 2006) to generate enough chromatins for PCR analysis of multiple target genes or for hybridization to promoter arrays. Equal amount of amplified input and ChIP-enriched chromatins were subjected to PCR testing for enrichment of target gene promoters. For ChIP and qRT-PCR analysis, DU145 cells were treated with 0.5 μM of SAHA for 30 min, 2, 6, 12 and 24 hrs prior to harvest.

Assay [5] has as its system DU145 prostate cancer cells. The assay is described as follows: Modified basement membrane invasion assay in DU145 cells. Format: cell-based. The procedure:
(§3) The ADRB2 antagonist ICI 118,551, and agonist Isoproterenol was purchased from Sigma-Aldrich, and used at a working concentration of 1 μM, 10 μM or 100 μM. SAHA was obtained from Biovision Inc, dissolved in DMSO, and used at a working concentration of 1 μM. DZNep was used at 5 μM and cells were treated for 48 hrs before being harvested for RNA isolation. Basement membrane matrix invasion assay was essentially performed as previously described (Kleer et al., 2003, supra). Briefly, warm serum free medium was mixed with Matrigel (Fisher Scientific) at 1:3 ratio, 300 μl of this Matrigel mixture was added into the center of each cell well inserts of the Chemicon 24-well plate (Chemicon), and allowed to solidify at room temperature for 1-2 hrs. Cells were trypsinized and resuspended in serum-free medium. Approximately 1×10^5 cells in 300 μl of serum free medium were placed into each insert, the upper chamber, whereas 500 μl of full medium was added to the lower chamber. Cells were treated with corresponding drug for 10 min prior to be placed into invasion chambers. Cells were then grown in the upper chamber for 48 hrs. The non-invading cells inside the insert were removed and the insert were stained for invaded cells on the lower surface of the membrane. The stained cells were then counted using a microscope and images taken.

Assay [6] relates to DU145 prostate cancer cells. The experiment in a line: Murine prostate tumor xenograft model (DU145). The format is in vivo. Particulars: nude mice, daily intraperitoneal injection 400 μg/day or 800 ug/day vs PBS; FIG. 5B. As for the experimental part:
All procedures involving mice were approved by the University Committee on Use and Care of Animals of the University of Michigan. Male nude athymic BALB/c nu/nu mice 5-week-old (Charles River Laboratory, Wilmington, Mass.) were used for examining the tumorigenicity. […] To evaluate the role of β-adrenergic signaling in tumor formation, DU145 cell was propagated, and treated with PBS or 10 μM Isoproterenol at 24 hrs prior to harvest. Cells were then harvested and suspended in a 0.1 ml PBS with or without treatment of 10 μM Isoproterenol. A total of 15 mice (n=5 per group) were each implanted with 5×10^6 DU145 cells into the dorsal flank subcutaneously. Treatment started 24 hrs after implantation. Each group was administered daily by intraperitoneal injection with either PBS or Isoproterenol (at 400 μg/day or 800 μg/day). Tumor size was measured every week and tumor volumes were estimated using the formula (n/6)(L×W2), where L=length of tumor and W=width.

The test system of the next assay is RWPE-shADRB2 cells. The assay is described as follows: Modified basement membrane invasion assay in RWPE-shADRB2 cells. Format: cell-based. Particulars: RWPE-shADRB2 cells treated with 0, 10, or 100 μM. The procedure: The ADRB2 antagonist ICI 118,551, and agonist Isoproterenol was purchased from Sigma-Aldrich, and used at a working concentration of 1 μM, 10 μM or 100 μM. SAHA was obtained from Biovision Inc, dissolved in DMSO, and used at a working concentration of 1 μM. DZNep was used at 5 μM and cells were treated for 48 hrs before being harvested for RNA isolation. EZH2 adenovirus infection and RNA interference were performed as described (Kleer et al., Proc Natl Acad Sci USA 100, 11606-11611 2003; Varambally et al., Cancer Cell 8, 393-406 2002). RWPE cells with stable ADRB2 knockdown were generated by transfection with ADRB2 shRNA constructs (Open Biosystems, Huntsville, Ala.) and selection with puromycin. DU145 cell lines with stable EZH2 knockdown were generated using EZH2 shRNA expressing constructs (Open Biosystems). Basement membrane matrix invasion assay was essentially performed as previously described (Kleer et al., 2003, supra). Briefly, warm serum free medium was mixed with Matrigel (Fisher Scientific) at 1:3 ratio, 300 μl of this Matrigel mixture was added into the center of each cell well inserts of the Chemicon 24-well plate (Chemicon), and allowed to solidify at room temperature for 1-2 hrs. Cells were trypsinized and resuspended in serum-free medium. […] The stained cells were then counted using a microscope and images taken.

A further assay deals with RWPE cells. The experiment in a line: Modified basement membrane invasion assay in RWPE cells. Format: cell-based. Particulars: noninvasive RWPE cells treated with 0, 1, or 10 μM; FIG. 4C. As for the experimental part: as §1
as §3, with “Basement” for “The ADRB2 antagonist ICI 118,551, and agonist Isoproterenol was purchased from Sigma-Aldrich, and used at a working concentration of 1 μM, 10 μM or 100 μM. SAHA was obtained from Biovision Inc, dissolved in DMSO, and used at a working concentration of 1 μM. DZNep was used at 5 μM and cells were treated for 48 hrs before being harvested for RNA isolation. Basement”

Assay [7] concerns RWPE benign prostate epithelial cells. The experiment in a line: Immunoblot of EMT biomarkers and cell adhesion molecules in RWPE cells. Particulars: FIG. 4F. Format: cell-based. The procedure:
as §1
Cell extracts were separated by SDS-PAGE and blotted onto nitrocelllular membranes, immunoblotted with antibodies and visualized using ECL-plus (Amercham Bioscience). The following antibodies were used: ADRB2 (Abcam), β-tubulin (Santa Cruz), EZH2 (BD Bioscience). The anti-ADRB2 antibody usually gives a major band of predicted size (46.5 kDa). However, some lots of this antibody may give an extra, weaker band about 5 kDa above the predicted band.

Take `Nc1nccc2c1ncn2C1C=C(CO)C(O)C1O` (centres unmarked) [DZNep]: the ADRB2 transcript entry with ADRB2 transcript [1] was “Marked up-regulation; also recorded: strong induction (de-repression) of ADRB2 in all cell lines tested”.
With `O=C(CCCCCCC(=O)Nc1ccccc1)NO` [SAHA], the “recruitment of Myc-EZH2 to the ADRB2 promoter” value in the assay on ADRB2 promoter [2] was “this binding being sensitive to SAHA”. For the same compound, the ADRB2 transcript result with ADRB2 transcript [3] is reported as “up-regulated; also recorded: upregulation of ADRB2 transcripts”. Moreover, in the assay with ADRB2 promoter [4], the “H3K27 trimethylation at the ADRB2 promoter” value is “marked reduction of PRC2 binding and consequent H3K27 trimethylation”; the “acetylated H3 at the ADRB2 promoter” value is “accumulation of acetylated H3”. The “PRC2 binding at the ADRB2 promoter” value with ADRB2 promoter [4] (endogenous PRC2) is “sensitive to the HDAC inhibitor SAHA; also recorded: marked reduction of PRC2 binding”.
In the case of `CC(C)NCC(O)c1ccc(O)c(O)c1` (centres unmarked) [Isoproterenol], the cell invasion result was “inhibits cell invasion” in assay [5] (DU145 cells treated with 0, 10, or 100 μM); “significantly reduced invasion” in assay [5] (DU145 cells treated with 0, 10, or 100 μM, listed as isoproterenol); “decreased cell invasion” in assay [5] (PCA model system, cell line not given); “inhibits cell invasion” in the assay with RWPE-shADRB2 cells; “significantly reduced invasion” in the assay with RWPE-shADRB2 cells (listed as isoproterenol). Also, the xenograft tumor size result in assay [6] is recorded as “significantly (two-sample t-test, p=0.006) smaller tumors”.
For `Cc1ccc(OCC(O)C(C)NC(C)C)c2c1CCC2` (centres unmarked) [ICI 118,551], in the assay with RWPE cells, the cell invasion result is recorded as “leads to increased invasion; also recorded: significantly increased invasion”. Besides, in assay [7], the “expression of EMT biomarkers and cell adhesion molecules” value was “regulates the expression of EMT biomarkers and cell adhesion molecules; also recorded: recaptured the expressional changes in RWPE-shADRB2 cells”.
